pIC50: −log10 of the molar value.
Each molecule was assayed against T1, TF-VIIa (Homo sapiens, UniProt P08709) (assay: TF-VIIa Assay). Settings: 100 µM.
T1 construct: 2nM recombinant human factor VIIa; purchased American Diagnostica, Greenwich CT; host or cells: soluble TF made in house in E. coli
Assay type: biochemical

T1 sequence (P08709 213-466 limits assumed): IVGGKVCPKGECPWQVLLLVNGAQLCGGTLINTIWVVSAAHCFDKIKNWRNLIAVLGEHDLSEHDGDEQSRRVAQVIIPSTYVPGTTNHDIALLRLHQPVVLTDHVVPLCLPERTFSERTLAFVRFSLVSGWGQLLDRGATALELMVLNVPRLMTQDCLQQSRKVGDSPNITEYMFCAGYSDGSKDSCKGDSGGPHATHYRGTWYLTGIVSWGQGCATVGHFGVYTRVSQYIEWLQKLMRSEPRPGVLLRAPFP
T1 sequence (P08709 61-212 limits assumed): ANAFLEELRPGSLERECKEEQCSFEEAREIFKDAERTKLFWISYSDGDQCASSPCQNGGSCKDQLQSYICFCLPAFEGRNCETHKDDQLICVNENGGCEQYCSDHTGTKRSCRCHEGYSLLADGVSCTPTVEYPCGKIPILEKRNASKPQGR
T1 sequence (P13726 33-251 partner limits assumed): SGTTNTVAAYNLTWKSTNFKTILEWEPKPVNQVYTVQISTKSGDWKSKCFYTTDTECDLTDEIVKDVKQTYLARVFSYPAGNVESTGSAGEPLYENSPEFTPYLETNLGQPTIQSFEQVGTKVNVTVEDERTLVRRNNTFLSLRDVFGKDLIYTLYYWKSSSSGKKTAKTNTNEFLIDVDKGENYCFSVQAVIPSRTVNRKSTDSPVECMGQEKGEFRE

| Structure (SMILES) | % Inhibition TF-VIIa (100 µM) |
| --- | --- |
| O=C(Cn1c(-c2ccc(-c3ccccc3)cc2)c(Cl)nc(NCCc2ccc(Cl)cc2)c1=O)NCCc1ccncc1 [Example E-0118] | 12% |
| O=C(Cn1c(-c2ccc(Cl)cc2)c(Cl)nc(NCCN2CCOCC2)c1=O)NCCc1ccncc1 [Example E-0023] | 0% |
| O=C(Cn1c(-c2ccc(-c3ccccc3)cc2)c(Cl)nc(NCCc2ccc(Cl)cc2)c1=O)NCCc1ccncc1 [Example E-0052] | 0% |
| O=C(Cn1c(-c2ccc(Cl)cc2)c(Cl)nc(NCCc2cccc(Cl)c2)c1=O)NCCc1ccncc1 [Example E-0019] | 0% |
| O=C(Cn1c(-c2ccc(Cl)cc2)c(Cl)nc(NCCc2cccnc2)c1=O)NCCc1ccncc1 [Example E-0021] | 0% |
| O=C(Cn1c(-c2cccc(Cl)c2)c(Cl)nc(NCCc2ccccc2)c1=O)NCCc1ccncc1 [Example E-0076] | 0% |
| O=C(Cn1c(-c2cccc(Cl)c2)c(Cl)nc(NCc2ccccc2)c1=O)NCCc1ccncc1 [Example E-0085] | 0% |
| O=C(Cn1c(-c2ccc(-c3ccccc3)cc2)c(Cl)nc(NCc2ccccc2)c1=O)NCCc1ccncc1 [Example E-0049] | 2% |
| O=C(Cn1c(-c2cccc(Cl)c2)c(Cl)nc(NCCc2ccccc2)c1=O)NCCc1cccnc1 [Example E-0077] | 0% |
| O=C(Cn1c(-c2cccc(Cl)c2)c(Cl)nc(NCCc2ccccc2)c1=O)NCCc1ccncc1 [Example E-0088] | 0% |
| O=C(Cn1c(-c2ccc(-c3ccccc3)cc2)c(Cl)nc(NCCc2ccccc2)c1=O)NCCc1ccncc1 [Example E-0112] | 11% |
| O=C(Cn1c(-c2cccc(Cl)c2)c(Cl)nc(NCCc2cccc(Cl)c2)c1=O)NCCc1cccnc1 [Example E-0092] | 1% |
| COc1ccc(-c2c(Cl)nc(NCCc3ccc(Cl)cc3)c(=O)n2CC(=O)NCCc2ccncc2)cc1 [Example E-0106] | 5% |
| O=C(Cn1c(-c2cccc(Cl)c2)c(Cl)nc(NCCc2cccc(Cl)c2)c1=O)NCCc1cccnc1 [Example E-0080] | 1% |
| COc1ccc(-c2c(Cl)nc(NCCc3cccc(Cl)c3)c(=O)n2CC(=O)NCCc2ccncc2)cc1 [Example E-0103] | 2% |
| O=C(Cn1c(-c2cccc(Cl)c2)c(Cl)nc(NCCc2cccc(Cl)c2)c1=O)NCCc1ccncc1 [Example E-0091] | 1% |
| O=C(Cn1c(-c2ccc(Cl)cc2)c(Cl)nc(NCCc2ccccc2)c1=O)NCCc1ccncc1 [Example E-0018] | 1% |
| O=C(Cn1c(-c2cccc(Cl)c2)c(Cl)nc(NCCc2ccc(Cl)cc2)c1=O)NCCc1cccnc1 [Example E-0083] | 2% |
| COc1ccc(-c2c(Cl)nc(NCCc3ccccc3)c(=O)n2CC(=O)NCCc2ccncc2)cc1 [Example E-0034] | 0% |
| O=C(Cn1c(-c2ccc(Cl)cc2)c(Cl)nc(NCc2ccccc2)c1=O)NCCc1ccncc1 [Example E-0025] | 0% |

Same assay, conditions: read-out: IC50 or % Inhibition TF-VIIa (30 µM); cells given as a plain number (IC50)

| Structure (SMILES) | pIC50 |
| --- | --- |
| N=C(N)c1ccc(CNC(=O)Cn2c(-c3ccc(Cl)cc3)c(Cl)nc(NCCc3ccncc3)c2=O)cc1 [1471-21] | 5.09 |
| N=C(N)c1ccc(CNC(=O)Cn2c(-c3ccc(Cl)cc3)c(Cl)nc(NCCc3cccnc3)c2=O)cc1 [1471-24] | 5.00 |
| N=C(N)c1ccc(CNC(=O)Cn2c(-c3ccc(Cl)cc3)c(Cl)nc(NCc3ccccc3)c2=O)cc1 [1471-17] | 4.96 |

Same assay, conditions: read-out: IC50 or % Inhibition TF-VIIa (30 µM); cells without % sign: IC50

| Structure (SMILES) | pIC50 |
| --- | --- |
| N=C(N)c1ccc(CNC(=O)Cn2c(-c3cccc(N)c3)c(Cl)nc(NCCN3CCCC3)c2=O)c(F)c1 [1543-37] | 5.91 |
